Calls of active or inactive are those of the source.

For orientation: IC50 means the concentration needed to halve the response being measured. As usually defined, the CC50 is the concentration that lowers cell viability or growth by half. The AC50 is the concentration at which the activity in the assay is half-maximal. One may read the EC50 as the concentration at which the effect is half-maximal.

Assay [1] has as its target T1, Carboxy-terminal domain RNA polymerase II polypeptide A small phosphatase 1 (Homo sapiens, UniProt Q9GZU7).
T1 sequence (Q9GZU7 whole entry): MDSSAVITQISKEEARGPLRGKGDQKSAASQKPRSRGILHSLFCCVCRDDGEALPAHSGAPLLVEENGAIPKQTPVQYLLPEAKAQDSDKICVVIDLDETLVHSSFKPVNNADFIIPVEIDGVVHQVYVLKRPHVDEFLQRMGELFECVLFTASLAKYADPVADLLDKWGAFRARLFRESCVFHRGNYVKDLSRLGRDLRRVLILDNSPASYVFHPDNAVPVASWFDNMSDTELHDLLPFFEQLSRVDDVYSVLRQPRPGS
Nature of the assay: CTDSP1 inhibitors, concentration-response, biochemical, absorbance readout, ultra-high-throughput screen actives (AID 540297). The class given is functional.

Assay [2] in a line: cells. The class given is functional.
Assay [3] is described as follows: THP-1 cell cytotoxicity, dose response, cytotoxicity control for non-replicating M. tuberculosis project (AID 489025). The format is functional.
Assay [4] is described as follows: Vero E6 cell cytotoxicity, dose response, cytotoxicity control for non-replicating M. tuberculosis project, secondary assay (AID 492998). The class given is functional, VeroE6. The following applies: Vero C1008.
A short description of assay [5]: HEK-293T viability loss after treatment – luminescence, T-cell screen hits, cytotoxicity control for TCR NF-kB inhibitor project, dose response (AID 489026).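 Also: cells exposed to compound about 14 hours before the viability readout.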 The class given is functional, cell-based.
The nature of assay [6]: Luminescence Cell-Based Dose Retest to Confirm Inhibitors of Cancer Stem Cells. [Related pubchem assays (depositor defined):AID2717, AID2721]. The class given is functional. The following applies: Homo sapiens.
A further assay concerns the target Nonstructural protein 1 (Influenza A virus, UniProt Q194T2). The class given is functional, Influenza A virus (A/California/07/2009(H1N1)).
The target in assay [7] is DNA dC->dU-editing enzyme APOBEC-3A (Homo sapiens, UniProt P31941). Nature of the assay: Dose Response confirmation of small molecule APOBEC3A DNA Deaminase Inhibitors via a fluorescence-based single-stranded DNA deaminase assay. [Related pubchem assays (depositor defined):AID493011, AID493024]. The format is functional.
DNA dC->dU-editing enzyme APOBEC-3A, sequence (P31941 whole entry): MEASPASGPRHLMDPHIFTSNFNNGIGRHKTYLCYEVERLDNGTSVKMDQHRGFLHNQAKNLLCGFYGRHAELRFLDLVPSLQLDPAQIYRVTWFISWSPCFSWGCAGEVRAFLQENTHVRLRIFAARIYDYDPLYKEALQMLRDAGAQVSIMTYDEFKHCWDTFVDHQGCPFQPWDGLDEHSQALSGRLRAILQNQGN
In assay [8] the target is DNA dC->dU-editing enzyme APOBEC-3G (Homo sapiens, UniProt Q9HC16). The format is functional.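 Also: Dose-response counterscreen measuring inhibition of APOBEC3G DNA deaminase activity, run while confirming APOBEC3A inhibitors.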
DNA dC->dU-editing enzyme APOBEC-3G, sequence (Q9HC16 whole entry): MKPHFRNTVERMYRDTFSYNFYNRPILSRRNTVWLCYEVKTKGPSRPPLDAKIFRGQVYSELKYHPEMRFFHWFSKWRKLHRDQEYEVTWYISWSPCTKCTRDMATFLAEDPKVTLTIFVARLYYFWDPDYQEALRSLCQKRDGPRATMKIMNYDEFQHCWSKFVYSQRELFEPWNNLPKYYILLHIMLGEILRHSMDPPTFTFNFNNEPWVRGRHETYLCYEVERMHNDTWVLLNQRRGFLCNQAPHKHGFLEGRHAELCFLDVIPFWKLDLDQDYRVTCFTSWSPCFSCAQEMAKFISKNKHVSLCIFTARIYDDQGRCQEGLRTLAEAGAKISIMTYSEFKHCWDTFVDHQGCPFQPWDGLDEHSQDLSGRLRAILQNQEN
The next assay addresses T2, Protein skinhead-1 (Caenorhabditis elegans, UniProt P34707).
T2 sequence (P34707 whole entry): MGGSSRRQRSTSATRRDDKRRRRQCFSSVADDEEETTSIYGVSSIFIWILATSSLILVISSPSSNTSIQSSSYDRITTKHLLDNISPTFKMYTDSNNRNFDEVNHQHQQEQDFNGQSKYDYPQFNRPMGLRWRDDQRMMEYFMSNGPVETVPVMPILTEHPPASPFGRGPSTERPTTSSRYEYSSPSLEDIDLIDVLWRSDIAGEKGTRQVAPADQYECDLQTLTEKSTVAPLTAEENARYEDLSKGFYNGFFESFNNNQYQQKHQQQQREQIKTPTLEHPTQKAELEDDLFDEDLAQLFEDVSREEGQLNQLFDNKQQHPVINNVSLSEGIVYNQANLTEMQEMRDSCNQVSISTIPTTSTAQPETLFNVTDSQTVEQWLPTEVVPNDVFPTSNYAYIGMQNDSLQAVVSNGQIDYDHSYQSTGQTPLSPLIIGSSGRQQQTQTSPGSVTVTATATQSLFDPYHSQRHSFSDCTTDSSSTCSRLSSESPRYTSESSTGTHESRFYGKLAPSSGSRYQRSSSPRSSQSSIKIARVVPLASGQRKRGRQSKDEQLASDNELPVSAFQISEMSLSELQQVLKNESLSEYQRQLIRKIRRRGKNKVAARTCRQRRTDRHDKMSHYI
The format is functional.

Assay [9] can be described thus: non-specific 3'UTR reporter inhibition in Clone20-Shn3RL – cell-based, Renilla luciferase, cherry-picked, counter-screen for Shn3 inhibitor project, dose response (AID 624133). The class given is functional.
For assay [10], the target named is Heat shock protein HSP 90-alpha (Homo sapiens, UniProt P07900). The class given is functional, organism-based.
Assay [11] can be described thus: reduction of Shn3 3'UTR-driven luciferase in osteoblasts – cell-based, Clone20 osteoblasts, firefly luciferase, cherry-picked, dose response (AID 624132).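 Also: firefly luciferase luminescence from reporter carrying the Shn3 3'UTR in osteoblasts.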 The format is functional.
In assay [12] the target is Dual specificity tyrosine-phosphorylation-regulated kinase 1A (Rattus norvegicus, UniProt Q63470). The format is biochemical, Homo sapiens.
The nature of assay [13]: cells. The class given is functional, cell-based.
Assay [14] deals with T3, Short transient receptor potential channel 4 (Mus musculus, UniProt Q9QUQ5).
T3 sequence (Q9QUQ5 whole entry): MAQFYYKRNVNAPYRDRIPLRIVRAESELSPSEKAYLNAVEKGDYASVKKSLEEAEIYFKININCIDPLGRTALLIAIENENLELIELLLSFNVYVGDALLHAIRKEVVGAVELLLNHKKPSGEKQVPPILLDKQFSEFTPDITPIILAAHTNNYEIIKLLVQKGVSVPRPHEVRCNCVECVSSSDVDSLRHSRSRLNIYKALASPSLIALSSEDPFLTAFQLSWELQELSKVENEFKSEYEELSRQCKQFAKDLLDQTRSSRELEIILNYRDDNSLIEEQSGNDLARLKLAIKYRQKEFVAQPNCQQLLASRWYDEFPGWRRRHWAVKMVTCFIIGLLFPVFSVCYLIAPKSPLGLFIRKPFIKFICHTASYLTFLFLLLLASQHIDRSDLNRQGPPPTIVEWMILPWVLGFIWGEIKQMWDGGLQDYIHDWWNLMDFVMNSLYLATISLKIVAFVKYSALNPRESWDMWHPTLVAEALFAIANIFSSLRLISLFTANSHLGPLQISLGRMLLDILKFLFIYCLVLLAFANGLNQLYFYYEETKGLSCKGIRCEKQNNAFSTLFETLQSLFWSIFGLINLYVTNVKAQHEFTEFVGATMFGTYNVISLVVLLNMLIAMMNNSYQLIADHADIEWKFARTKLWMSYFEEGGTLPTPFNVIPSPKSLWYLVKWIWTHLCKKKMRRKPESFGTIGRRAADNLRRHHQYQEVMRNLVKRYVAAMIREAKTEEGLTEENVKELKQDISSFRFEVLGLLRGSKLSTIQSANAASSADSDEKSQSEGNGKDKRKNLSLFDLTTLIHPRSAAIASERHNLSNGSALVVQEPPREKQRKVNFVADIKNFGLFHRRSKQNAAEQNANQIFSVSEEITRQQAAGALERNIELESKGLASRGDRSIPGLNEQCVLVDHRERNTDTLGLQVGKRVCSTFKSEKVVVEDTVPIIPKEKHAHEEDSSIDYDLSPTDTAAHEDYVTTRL
Nature of the assay: block of DAMGO-driven TRPC4 calcium entry – cell-based, HEK293 TRPC4/mu-opioid, Fluo-4 calcium, dose response (AID 434942).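 Also: potency of inhibitors blocking the TRPC4 calcium response.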 The format is functional.

Assay [15] in a line: NIH3T3 cell viability loss – ATP luminescence, mouse fibroblasts, counter-screen, dose response (AID 2010).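 Also: cells exposed to compound for about 90 hours before reading.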 The class given is functional, cell-based. (In general: Counterscreens check selectivity or assay interference.)
A short description of assay [16]: Trypanosoma cruzi growth suppression in host cells – NIH3T3 host cells, beta-gal luminescence, confirmation (AID 2044).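 Also: intracellular parasites grown in NIH/3T3 mouse fibroblasts as host cells; luminescent beta-galactosidase reporter signal from transgenic T. cruzi replicating inside host cells; inhibitors lower the luminescence signal.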 The format is functional, cell-based.
Assay [17] is described as follows: A cytotoxicity screen of small molecule inhibitors of the PhoP region in Salmonella typhi identified in the primary screen. [Related pubchem assays: 1850, 1864, 1985 ]. The format is functional.
Assay [18] has as its target T4, Heat shock factor protein 1 (Mus musculus, UniProt P38532).
T4 sequence (P38532 whole entry): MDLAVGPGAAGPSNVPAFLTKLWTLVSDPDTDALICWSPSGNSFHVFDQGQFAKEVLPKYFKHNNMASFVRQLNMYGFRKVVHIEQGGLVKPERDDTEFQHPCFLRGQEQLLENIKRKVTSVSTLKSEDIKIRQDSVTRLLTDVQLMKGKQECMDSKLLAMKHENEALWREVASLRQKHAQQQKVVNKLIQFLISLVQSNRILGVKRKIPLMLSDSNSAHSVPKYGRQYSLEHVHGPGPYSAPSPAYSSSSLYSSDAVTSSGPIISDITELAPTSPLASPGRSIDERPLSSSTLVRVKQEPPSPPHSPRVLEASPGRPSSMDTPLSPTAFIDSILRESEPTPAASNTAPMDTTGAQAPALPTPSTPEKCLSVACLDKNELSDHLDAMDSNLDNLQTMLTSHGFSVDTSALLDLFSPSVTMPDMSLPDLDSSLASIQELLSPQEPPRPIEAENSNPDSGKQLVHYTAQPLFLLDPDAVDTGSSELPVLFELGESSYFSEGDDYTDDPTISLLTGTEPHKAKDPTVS
Nature of the assay: decrease of HSF1-responsive luciferase luminescence – cell-based, NIH3T3, dose retest, confirmation (AID 2382).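 Also: NIH3T3 fibroblasts with HSF1-driven luciferase reporter stressed by proteasome inhibitor MG132; luminescence from HSF1-driven luciferase expression after 8 hours of MG132 stress.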 The format is functional.

Nonstructural protein 1, sequence (Q194T2 whole entry): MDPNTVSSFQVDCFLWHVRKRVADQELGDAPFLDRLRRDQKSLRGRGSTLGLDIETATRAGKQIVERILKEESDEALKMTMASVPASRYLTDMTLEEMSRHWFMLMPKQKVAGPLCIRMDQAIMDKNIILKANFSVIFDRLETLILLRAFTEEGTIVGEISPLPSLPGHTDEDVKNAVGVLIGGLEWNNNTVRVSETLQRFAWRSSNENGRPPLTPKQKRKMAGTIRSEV

On to `Cc1ccc(-c2cc(C(=O)N/N=C/c3ccc(Cl)cc3)[nH]n2)o1`, for which, in [1], the half-maximal inhibitory concentration (IC50) was 9.23 µM (active).
Regarding `O=C(N/N=C/c1cc([N+](=O)[O-])ccc1O)C1CCCCC1`, the half-inhibitory concentration (IC50) in “cells [2]” is 17.9 µM (active). In addition, the results for the CC50 in assay [3] and in assay [4] were 21.4 µM (active) and > 20 µM (active), respectively.
With `COc1ccc(N(C(=O)c2ccccc2C)S(=O)(=O)c2cccs2)cc1`, the IC50 in assay [5] is > 80 µM (inactive). Further, the AC50 in assay [6] is 0.17 µM (active).
Turning to `Cc1c(N/N=C2/C(=O)NC(=O)N(Cc3ccccc3)C2=O)c(=O)n(-c2ccccc2)n1C`, the half-maximal inhibitory concentration (IC50) at Nonstructural protein 1 is 3.31 µM (active).
Take `CCSCc1nnc(SCC(=O)Nc2ccc(OC)cc2)n1C`: the values for the IC50 in [7] and in assay [8] were 3.08 µM (active) and 4.91 µM (active), respectively.
In the case of `O=C(Nc1ccc(Br)cc1Cl)c1cnccn1`, the IC50 in assay [1] was 4.67 µM (active); on Protein skinhead-1, > 100 µM (inactive).
Regarding `N=C(Nc1nc(-c2ccccn2)cc2ccccc12)c1ccccn1`, the AC50 in [9] was < 0.26 µM (active); in assay [10], 2.76 µM (active); in assay [11] it was < 0.26 µM (active). The IC50 at Nonstructural protein 1 is 39.6 µM (active).
On to `CC(=O)Nc1cccc(-c2cnc3ccccc3n2)c1`, for which the AC50 in [12] was 6.1 µM (active).
With `O=c1oc2cc([N+](=O)[O-])ccc2nc1/C=C(\O)c1cccc(Br)c1`, the EC50 in “cells [13]” was > 350 µM (not active).
`CCN1CCN(c2ccc(S(=O)(=O)N3CCCCC3)cc2NC(=O)/C=C/c2ccc(F)cc2)CC1`: the 50% inhibitory concentration (IC50) in assay [7] was 4.6 µM (active); in assay [8] it was 7.23 µM (active).
For the molecule `CCOc1cc(/C=C2\SC(N3CCCCC3)=NC2=O)ccc1O`, the concentration at half-maximal activity (AC50) in assay [12] is 0.678 µM (active).
For `COc1ccc(CN2CCN(Cc3ccc(C(F)(F)F)cc3)CC2)c(OC)c1`, the EC50 in [14] was 2.66 µM (active).
As to `O=C(NCCc1ccccc1)c1cc2ncc(Br)cn2n1`, the 50% inhibitory concentration (IC50) in [7] is 12.8 µM (active); in assay [8], > 100 µM (inactive).
On to `CN(C)CCCN(Cc1cc2cc3c(cc2nc1O)OCO3)C(S)=NCc1ccco1`, for which, in assay [14], the EC50 was 0.421 µM (active).
Turning to `COc1ccccc1N(C(=O)c1snc(C(N)=O)c1N)C(C(=O)NC1CCCC1)c1ccc2ncccc2c1` (configuration not stated), the EC50 in assay [14] was 2.66 µM (active).
Regarding `CCCCN(C(=O)Cn1ncc(Cl)c(Cl)c1=O)c1c(N)n(CC(C)C)c(=O)[nH]c1=O`, the IC50 in assay [1] is 5.74 µM (active).
With `CCc1noc(C)c1C(=O)NNC(=O)c1cc(OC)c(OC)c(OC)c1`, the values for the half-inhibitory concentration (IC50) in assay [7] and in [8] were 21.3 µM (active) and 13.9 µM (active), respectively.
In the case of `CCN(CC)CC(=O)Nc1ccc(Cl)cc1C(=O)c1ccccc1`, the EC50 in [14] is 2.37 µM (active).
`O=[N+]([O-])c1ccccc1/C=C/C=N/Nc1nc(N2CCCCC2)nc(N2CCCCC2)n1`: the values for the IC50 in assay [7] and in assay [8] were 1.14 µM (active) and 0.814 µM (active), respectively.
Consider `COc1cc(Nc2ccc(C)cc2)c([N+](=O)[O-])nc1[N+](=O)[O-]`, for which the IC50 in assay [5] was > 80 µM (inactive). The AC50 in assay [6] was 3.51 µM (active). The values for the EC50 in [15] and in assay [16] were > 60 µM (not active) and 3.02 µM (active), respectively.
For the molecule `CC(=O)OC1C2CCC1C([N+]1(C)CCCCC1)CC2` (configuration not stated), the half-inhibitory concentration (IC50) is 2.69 µM (active) in assay [7], 4.51 µM (active) in assay [1] and 3.15 µM (active) in [8].
As for `O=C(NCCN1CCOCC1)c1cc2sccc2n1Cc1ccc(Cl)cc1`, at Nonstructural protein 1, the concentration for half-maximal inhibition (IC50) is > 100 µM (active).
Take `CCC1CCCCN1Cc1nc2c(c(=O)n(C)c(=O)n2C)n1Cc1ccccc1` (configuration not stated): the EC50 in assay [14] is 3.76 µM (active).
In the case of `O=C(Nc1cccc2nsnc12)c1ccc2c(c1)OCO2`, the half-maximal activity concentration (AC50) in assay [12] was 11.7 µM (active).
For `Cc1nc([N+](=O)[O-])c(Br)n1CC(=O)c1ccc(Cl)cc1`, the IC50 in “cells [2]” is 6.88 µM (active). The 50% cytotoxic concentration (CC50) is 17.4 µM (active) in assay [3] and 13 µM (active) in [4].
On to `Oc1ccc2ccc3[nH]cnc3c2c1`, for which the AC50 in [12] is 2.47 µM (active).
As for `Cc1nc2scc(C)n2c(=O)c1S(=O)(=O)N1CCN(c2cccc(C(F)(F)F)c2)CC1`, the EC50 is > 50 µM (active) in [17] and > 195 µM (not active) in assay [18].

These data come from ChEMBL document CHEMBL1201862, “PubChem BioAssay data set” (2004).
